Data on 1 compound can be found in US20120277165A1, “METHODS OF MODULATING FUCOSYLATION OF GLYCOPROTEINS” (priority 2009, published 2012).

The test system of experiment [1] is Lec 13.6 A cells (CHO cells deficient in GDP-mannose 4,6, dehydratase) expressing CTLA4Ig. The experiment in a line: GDP-fucose levels in CHO cells (nucleotide sugar extraction, RP chromatography, UV). Format: cell-based, Chinese hamster. As to conditions: relative to wild-type CHO = 100. The method, then: (§1) The levels of GDP-fucose levels and the degree of protein fucosylation on glycoproteins were analyzed for three different CHO cell lines expressing a representative secreted protein product (CTLA4Ig): CHO cells that are deficient in the enzyme GDP-mannose 4,6, dehydratase (Lec 13.6 A); CHO cells that have lowered levels of GDP-fucose (Lec 2); and wild-type CHO cells. […] Cells were harvested, and snap frozen, while culture supernatant was harvested and CTLA4Ig harvested by protein A purification for subsequent analysis. Cells were then subjected to nucleotide sugar extraction using standard methods. In short with chloroform:methanol:water (2:4:1), the pellets discarded and the resulting extraction dried down. The dried material was subsequently resuspended in 500 ul of 10% butanol in water and then extracted with 1 ml of 90% butanol in water. […] For quantification, sugar-nucletides were resolved with RP chromatography.
(§2) Protein products were isolated from culture supernatant by protein A affinity, and subjected to PNGase F treatment to remove glycans. The resulting glycans were isolated by PGC chromatography and subsequently analyzed by MALDI mass spectrometry. The % fucosylation was determined by determining the ratio of the glycans with or without core fucosylation. GDP-fucose levels are indicated in peak area as detected by UV.

The test system is the same in experiment [2]. The experiment in a line: Degree of core fucosylation of glycans on secreted CTLA4Ig (PNGase F, MALDI mass spectrometry). Format: cell-based, Chinese hamster. As to conditions: CTLA4Ig from Lec 13.6A cells. The method, then:
as §1, §2

The mark [3] stands for this setting: 0.01 mM exogenous fucose in culture media.
[4] abbreviates: 1 mM exogenous fucose in culture media.

Regarding `C[C@H](O)[C@@H](O)[C@@H](O)[C@H](O)C=O` [fucose], the entries for the “% of Parental GDP-fucose” value in experiment [1] (setting [3]) and in experiment [1] (setting [4]) were 62.5% and 270%, respectively. Besides, the “% Fucosylated Glycans” value was found to be 45% in experiment [2] (setting [3]) and 100% in experiment [2] (setting [4]).
